Measurements reported in patent US20150359802A1, “PARENTERAL PHARMACEUTICAL FORM WHICH RELEASES AROMATSE INHIBITOR AND GESTAGENS, FOR THE TREATMENT OF ENDOMETRIOSIS” (Bayer Intellectual Property GmbH, priority 2010, published 2015).
Entries after “also recorded” stand apart in the source; their conditions may differ. Like-named read-outs stand apart in the source and are kept apart here. One block for each molecule: values may come before it.

Assays:
[1] = system: ovulation; conditions: cited from earlier work
[2] = system: pituitary-ovarian axis; experiment: IVR study in cynomolgus monkeys: estradiol, FSH and progesterone levels; assay type: in vivo, cynomolgus monkey
From the text: (§1) This comprises, among other things, cycle length, hormone receptors, morphology, endocrine system and regulation of the pituitary-ovarian axis (Borghi, M. R., R. Niesvisky, et al. (1983). “Administration of agonistic and antagonistic analogues of LH-RH induce anovulation in Macaca fasicularis.” Contraception 27(6): 619-626. Satoru Oneda, T. I., Katsumi Hamana (1996). “Ovarian Response to Exogenous Gonadotropins in Infant Cynomolgus Monkeys” International Journal of Toxicology, 15(3): 194-204). The pharmacodynamic and pharmacokinetic effect of intravaginally administered dosages of the aromatase inhibitor anastrozole was studied over the duration of a menstrual cycle by inserting a vaginal ring (IVR) having three different release rates. Among other things, the influence on the pituitary-ovarian axis was studied by determining the hormones estradiol, FSH, progesterone (the blood collections required for this were carried out over the entire experimental period; on day 1, four collections [0 h, 1 h, 3 h, 6 h after insertion of the IVR]; 1 collection each on days 2 and 3; after this time point, further collections followed on every 3rd day) and by ultrasound scans of the ovary (2× per week). Hormone determination was carried out according to the instructions provided by the supplier (estradiol [Siemens/DPC], progesterone [Beckmann-Culter/DSL], FSH [SHG]). An IVR having an initial in vitro release of 0 μg/day (placebo, no anastrozole), 390 μg/day, 85 μg/day or 27 μg/day was inserted into five animals per group one to three days after the last day of menstruation. Animals having irregular cycles were excluded from the experiment.

[3] = system: ovary; experiment: IVR study in cynomolgus monkeys: ultrasound scans of the ovary; assay type: in vivo, cynomolgus monkey; conditions: for Ovarian cysts (ultrasound): cycle days 1-26
From the text: as §1

[4] = Plasma concentration of anastrozole after IVR administration and PK-based in vivo release; design: species or system female cynomolgus monkeys; conditions: in vitro release in buffer vs calculated in vivo release, primate experiment
Protocol: The concentration of anastrozole in plasma samples was quantitatively determined by means of liquid-liquid extraction with liquid chromatography coupled to tandem mass spectrometry (LC/ESI-MS/MS). The analyses were carried out on an Agilent 1200 and an AB Sciex Triple Quad 5500 in positive ionization mode. For this purpose, 100 μl were initially taken from each plasma sample, admixed with 300 μl of an aqueous solution containing any non-structurally-related compound as internal standard, and extracted with 1.3 ml of methyl tert-butyl ether on a Perkin Elmer Mass Prep Station. […] 5 μl of this were injected into the LC/MS/MS, the m/z transition 294 ([M+H]+)→225 was recorded, and the signal was integrated with the AB Sciex Software Analyst 1.5. The concentrations of the plasma samples were determined from the resulting areas with the aid of a calibration curve present in the same sequence (0, 0.0500 to 1000 nM in plasma, n=2). […]
The mean plasma concentration (Css) of anastrozole was calculated as the mean value of all measured concentrations per dose group from the day after insertion of the IVR up to the end of the experiment.
The mean in vivo release rates (Rin) from the IVR were subsequently calculated according to the equation: Rin=Css*CL (see table X). […]

[5] = Plasma protein binding by equilibrium dialysis, cynomolgus monkey plasma; assay type: in vitro ADME; conditions: cynomolgus monkey, plasma, seven hours at 37° C., read-out: Plasma protein binding [free fraction, fu]
[6] = system: plasma protein; experiment: as above; assay type: in vitro ADME; conditions: seven hours at 37° C.
[7] = Plasma protein binding by equilibrium dialysis, human plasma; assay type: in vitro ADME; conditions: human, plasma, seven hours at 37° C., read-out: Plasma protein binding [free fraction, fu]
[8] = system: plasma protein; experiment: as above; assay type: in vitro ADME; conditions: seven hours at 37° C.
[9] = system: systemic estrogen levels; conditions: 1 mg/day, post-menopausal women; cited from earlier work
[10] = system: ovarian stimulation; conditions: applied orally; cited from earlier work
[11] = cited from earlier work
[12] = in vivo; conditions: female, cynomolgus monkey, plasma, iv, 0.2 mg/kg
[13] = Estimation of IVR release rate and serum level for human application
Protocol: Subsequently, an estimation was made of the in vitro IVR release rate of an IVR for human application, which is necessary to achieve serum levels which led to a lowering of estradiol in the monkeys. […] The corresponding effective serum concentration in humans is estimated to be 9 μg/l, taking into account species-specific plasma protein binding, according to equation (1) below.
The mean in vivo release rate from the IVR which is necessary to achieve a plasma concentration of 9 μg/l in humans is calculated according to equation 2. For this equation, the plasma clearance of anastrozole in humans is required.

[14] = IVR 27 μg/day initial in vitro release
[15] = IVR 85 μg/day initial in vitro release
[16] = IVR 390 μg/day initial in vitro release

SMILES: C#C[C@]1(OC(C)=O)CC[C@H]2[C@@H]3CCC4=CC(=NO)CC[C@@H]4[C@H]3CC[C@@]21CC (mixture of isomers) [Norgestimate]
Ovulation inhibition dose ([1]; Neumann et al): 200 μg/day p.o.
Ovulation inhibition dose ([1]; Taubert & Kuhl): 200 μg/day p.o.

SMILES: C#C[C@]1(O)CC[C@H]2[C@@H]3CCC4=CC(=O)CC[C@@H]4[C@H]3C(=C)C[C@@]21CC [3-Keto-Desogestrel]
Ovulation inhibition dose ([1]; Taubert & Kuhl): 60 μg/day p.o.

Ovarian cysts (ultrasound) [3, 14]: None
Ovarian cysts (ultrasound) [3, 15]: None
Ovarian cysts (ultrasound) [3, 16]: None
formation of ovarian cysts ([3]; at the dosages used (27, 85, 390 μg/day)): no formation of ovarian cysts
in vitro/in vivo correction factor [4]: 1.1
fraction unbound at 7 h [5]: 0.52
Plasma protein binding [free fraction, fu] [6]: 34%
fraction unbound at 7 h [7]: 0.34
Plasma protein binding [free fraction, fu] [8]: 52%
clearance [12]: 9.67 mL/min/kg
initial in vitro release rate, for humans ([13]; […]): about 350 μg per day
Calculated initial in vitro IVR release rate (in buffer) with a decreasing release rate ([13]; decrease 32% in 4 weeks, human dose): ≈350 μg/day/60 kg patient
corresponding effective serum concentration in humans ([13]; from monkey Css 5.9 μg/l, corrected for species-specific plasma protein binding): 9 µg/L
constant in vitro release rate in buffer, for humans ([13]; in vitro/in vivo correction factor 1.1): 270 µg/day
human in vivo release rate, kept constant ([13]; to achieve levels that lowered estradiol in the monkeys): 246 µg/day
Calculated constant in vitro IVR release rate (in buffer) ([13]; to maintain in humans plasma levels of the effective dose in cynomolgus monkeys): ≈270 μg/day/60 kg patient
Calculated constant in vivo IVR release rate in humans ([13]; to maintain plasma levels of the effective dose in cynomolgus monkeys): ≈250 μg/day/60 kg patient
SMILES: CC(C)(C#N)c1cc(Cn2cncn2)cc(C(C)(C)C#N)c1 [Anastrozole, anastrozole]
estradiol levels during the follicular phase compared to the placebo group ([2]; 390 μg per day initial release, P value <0.0478): lowers the estradiol levels significantly; also recorded: significant fall during the follicular phase
E2 AUC (cycle days 1-26) [2, 14]: 4862 ± 1986 pmol/L
E2 AUC (follicular, cycle days 1-17) [2, 14]: 3854 ± 927.5 pmol/L/day
E2 AUC (luteal, cycle days 17-26) [2, 14]: 403.2 ± 169.7 pmol/L
FSH Mean level/day without preovulatory maximum [2, 14]: 5.52 ± 3.07 µg/L
Progesterone Mean level/day Follicular phase [2, 14]: 5.57 ± 5.11 nmol/L
Progesterone Mean level/day Luteal phase [2, 14]: 91.92 ± 52.78 nmol/L
E2 AUC (cycle days 1-26) [2, 15]: 4126 ± 2063 pmol/L
E2 AUC (follicular, cycle days 1-17) [2, 15]: 3235 ± 1101 pmol/L/day
E2 AUC (luteal, cycle days 17-26) [2, 15]: 605.1 ± 264.1 pmol/L
FSH Mean level/day without preovulatory maximum [2, 15]: 4.90 ± 2.58 µg/L
Progesterone Mean level/day Follicular phase [2, 15]: 6.58 ± 3.91 nmol/L
Progesterone Mean level/day Luteal phase [2, 15]: 60.02 ± 22.65 nmol/L
E2 AUC (cycle days 1-26) [2, 16]: 2784 ± 999.8 pmol/L
E2 AUC (follicular, cycle days 1-17) [2, 16]: 1978 ± 350.6 pmol/L/day
E2 AUC (luteal, cycle days 17-26) [2, 16]: 342.9 ± 135.2 pmol/L
FSH Mean level/day without preovulatory maximum [2, 16]: 4.83 ± 2.91 µg/L
Progesterone Mean level/day Follicular phase [2, 16]: 4.58 ± 2.64 nmol/L
Progesterone Mean level/day Luteal phase [2, 16]: 92.88 ± 55.50 nmol/L
counterregulation by the pituitary-ovarian axis ([2]; at the dosages used (27, 85, 390 μg/day), compared to placebo): fails to occur
reduction of systemic estrogen levels [9]: more than 85%
oral dosage at which ovarian stimulation can occur [10]: 1 mg
CLpl (CL/F) ([11]; Human, oral administration): 0.33 mL/min/kg
oral bioavailability (F) ([11]; humans): approximately 1

SMILES: CC(=O)O[C@]1(C(C)=O)CC[C@H]2[C@@H]3C=C(Cl)C4=CC(=O)CC[C@]4(C)[C@H]3CC[C@@]21C [Chlormanidone acetate]
Ovulation inhibition dose ([1]; Neumann et al): 1500-2000 μg/day p.o.
Ovulation inhibition dose ([1]; Taubert & Kuhl): 1700 μg/day p.o.

SMILES: CC(=O)O[C@]1(C(C)=O)CC[C@H]2[C@@H]3C=C(Cl)C4=CC(=O)[C@@H]5C[C@@H]5[C@]4(C)[C@H]3CC[C@@]21C [Cyproterone acetate]
Ovulation inhibition dose ([1]; Neumann et al): 1000 μg/day p.o.
Ovulation inhibition dose ([1]; Taubert & Kuhl): 1000 μg/day p.o.

SMILES: C#C[C@]1(O)CC[C@H]2[C@@H]3CCC4=CCCC[C@@H]4[C@H]3C(=C)C[C@@]21CC [Desogestrel]
Ovulation inhibition dose ([1]; Neumann et al): 60 μg/day p.o.
Ovulation inhibition dose ([1]; Taubert & Kuhl): 60 μg/day p.o.

SMILES: C[C@]12CCC3=C4CCC(=O)C=C4CC[C@H]3[C@@H]1CC[C@@]2(O)CC#N [Dienogest]
Ovulation inhibition dose ([1]; Neumann et al): 1000 μg/day p.o.

SMILES: C[C@]12CCC(=O)C=C1[C@@H]1C[C@@H]1[C@H]1[C@@H]3[C@@H]4C[C@@H]4[C@@]4(CCC(=O)O4)[C@@]3(C)CC[C@@H]12 [Drospirenone]
Ovulation inhibition dose ([1]; Neumann et al): 2000 μg/day p.o.

SMILES: C#C[C@]1(O)C=C[C@H]2[C@@H]3CCC4=CC(=O)CC[C@@H]4[C@H]3CC[C@@]21CC [Gestodene]
Ovulation inhibition dose ([1]; Neumann et al): 30 μg/day p.o.
Ovulation inhibition dose ([1]; Taubert & Kuhl): 30 μg/day p.o.

SMILES: N#Cc1ccc(C(c2ccc(C#N)cc2)n2cncn2)cc1 [Letrozole, letrozole]
oral dosage at which ovarian stimulation can occur [10]: 2.5 mg

SMILES: C#C[C@]1(O)CC[C@H]2[C@@H]3CCC4=CCCC[C@@H]4[C@H]3CC[C@@]21C [Lynestrenol]
Ovulation inhibition dose ([1]; Neumann et al): 2000 μg/day p.o.
Ovulation inhibition dose ([1]; Taubert & Kuhl): 2000 μg/day p.o.

SMILES: CC(=O)O[C@]1(C(C)=O)CC[C@H]2[C@@H]3C[C@H](C)C4=CC(=O)CC[C@]4(C)[C@H]3CC[C@@]21C [Medroxyprogesterone acetate]
Ovulation inhibition dose ([1]; Neumann et al): 10 μg/day p.o.

SMILES: C#C[C@]1(OC(C)=O)CC[C@H]2[C@@H]3CCC4=CC(=O)CC[C@@H]4[C@H]3CC[C@@]21C [Norethisterone acetate]
Ovulation inhibition dose ([1]; Neumann et al): 500 μg/day p.o.

SMILES: C#C[C@]1(O)CC[C@H]2[C@@H]3CCC4=CC(=O)CC[C@@H]4[C@H]3CC[C@@]21C [Norethisterone]
Ovulation inhibition dose ([1]; Neumann et al): 500 μg/day p.o.
Ovulation inhibition dose ([1]; Taubert & Kuhl): 400 μg/day p.o.
